The subject of one assay is H. somni. The assay is described as follows: MIC, H. somni strains. It is filed as cell-based. Conditions: lung isolates at necropsy, natural BRD study, n=25. The text has this: Primary screening of the compounds of the invention included the evaluation of antibacterial activity of analogs through determination of microbial inhibition concentration (MIC) as per CLSI guidelines. The screening panel included the relevant BRD pathogens: 1) M. haemolytica (e.g., 12726, 46571 and 49023, all AHDRCC; and 33396 (ATCC)); and 2) P. multocida (e.g., 34135 and 46572 (both AHDRCC) and 43137 (ATCC)). In some instances, H. somni (A700025K) pathogens were also included in the screening panel. The AHDRCC strains originated from the Zoetis BRD/SRD surveillance program and refer to the Animal Health Development and Research Culture Collection. In addition, the screen assessed S. aureus (29213 ATCC) as a representative Gram-positive isolate, E.faecalis (19433 ATCC) as a commensal gram-positive gastrointestinal bacterium and E. coli (100, 3110 and 25922 (ATCC)) for the evaluation of efflux potential. The screening panel BRD pathogens were assessed in determining antibacterial activity of the Formula (1) compounds.
All relevant BRD pathogens were initially screened at a top concentration of 64 μg/mL of a Formula (1) compound in an eleven-point dilution series. […] If an Example was purified further, the MICs moved […] essentially two dilutions across all strains tested in the screening panel.
In-Vitro MIC Model Compounds were analyzed for antibacterial activity against a panel of animal health specific gram-positive and gram-negative clinical strains by diluting compounds in DMSO to an appropriate stock concentration to determine the Minimal Inhibitory Concentration (MIC) via a semi-automated broth micro-dilution method (CLSI reference method) with QC strains and anti-microbial agent(s). Specifically, bacteria were grown overnight on TSA w/5% sheep blood agar plates and diluted in saline buffer to a McFarland Standard 0.5, then further diluted in cation-ion adjusted Mueller Hinton Broth to a final concentration of approximately 5×10^5 CFU/mL. 100 μL of inoculated media was added to 96-well plate(s) with 3 μL of serially diluted compound in each row. Depending on strain (see CLSI reference method), bacteria were incubated 18-22 hours at 35-37° C. in ambient air, with 5% CO2 or anaerobically (up to 48 hours).

A further assay relates to P. multocida. Nature of the assay: Murine P. multocida intranasal challenge study, treatment 18 hours after challenge, survival. The conditions noted are these: subcutaneous 18 hours after challenge (5×10^3 CFU/mouse); tulathromycin 16 mg/kg, M9 32 mg/kg, ceftiofur 9 mg/kg. It is filed as in vivo, mice. How it is done: In one murine P. multocida intranasal challenge study, mice were administered tulathromycin (16 mg/kg; T02), M9 (32 mg/kg; T03), or ceftiofur (9 mg/kg; T04) by subcutaneous injection 18 hours after bacterial challenge (5×10^3 CFU/mouse) for lung tissue RNA sequence analysis. Survival at Day 7 was about 80%, 50%, and 90% for T02, T03, and T04, respectively, compared to placebo at 0%. Differential gene expression from total lung tissue RNA sequence analysis indicated at least 226 unique genes were up or down regulated (with significance) for T03. Output from ingenuity pathway analysis of these unique genes predicted major upstream regulators of the involved pathways. Data was analyzed based on the number of genes being modulated in the same direction that were associated with a given upstream regulator. An activation z-score of 2 or greater is considered significant and the direction change is indicated by + (activated) or -(inhibited). The top 5 pathways included: IL-9 signaling, glucocorticoid receptor signaling, prolactin signaling, JAK STAT signaling, and IL-17 signaling. The top 6 upstream regulators (activation z-score) included: lipopolysaccharide (−6.725), TNF (−4.669), IFNγ (−5.759), IL-1β (−5.947), STAT1 (−2.787), and poly rl: rC-RNA (−5.289). Even though this study was run in the murine model, the top upstream regulators identified as being modulated by M9 include an almost ubiquitous overlap with the pathways identified in the natural disease study as being key mediators in BRD, and therefore is modulating highly relevant pathways in BRD pathobiology.

A further assay deals with CD163. The assay is described as follows: CD163 expression by flow cytometry, cattle. It is filed as in vivo, bovine. The conditions noted are these: monocytes/macrophages of whole blood. The protocol: CD163 Expression by Flow Cytometry-Fresh whole bovine blood samples were collected into EDTA vacutainer tubes, placed on ice and processed within two hours of collection. Blood was placed in 96 well round bottom plates at 30 μL per well, 5 μL of goat serum was added as a blocking reagent and the plate was rocked at 4° C. for approximately 15 minutes. To label cells, 10 μL of a master mix panel of antibodies including anti-CD14 (BioLegend #301854), anti-CD172a (BioRad #MCA2041C), anti-CD163 (Kingfisher #WSC0832B-100) and anti-CD16 (BioRad #MCA5665F), was added to the samples and returned to 4° C. (protected from light) for 30 minutes. Single stain controls were included for use in fluorescence compensation matrices. Red blood cells were removed by adding 200 μL of lysis buffer and incubating for 10 minutes at room temperature while rocking. The plate was then centrifuged at 270×g for three minutes and supernatant removed. This step was repeated until supernatant was clear. 200 μL of FACS buffer was added to each well to wash cells, centrifuged as above, resuspended in 80 μL of FACS buffer and read immediately on a digital FACS Canto II HTS (BD Bioscience) flow cytometer. Data was analyzed using FlowJo software (BD Bioscience). Macrophage subpopulations were determined using CD172, CD14, CD16 markers and assessed for expression of CD163. […]
A general note: In flow cytometry, cells or beads pass a laser one at a time.

Entries after “also recorded” stand apart in the source; their conditions may differ.

On to `CCCNC[C@]1(O)[C@H](C)O[C@@H](O[C@H]2[C@H](C)[C@@H](O[C@@H]3O[C@H](C)C[C@H](NC)[C@H]3O)[C@](C)(O)C[C@@H](C)CN[C@H](C)[C@@H](O)[C@](C)(O)[C@@H](CC)OC(=O)[C@@H]2C)C[C@@]1(C)OC` [Example M9, (2R,3S,4R,5R,8R,10R,11R,12S,13S,14R)-2-ethyl-3,4, 10-trihydroxy-13-(((2R,4R,5S,6S)-5-hydroxy-4-methoxy-4,6-dimethyl-5-((propylamino)methyl)-tetrahydro-2H-pyran-2-yl)oxy)-11-(((2S,3R,4S,6R)-3-hydroxy-6-methyl-4-(methylamino)tetrahydro-2H-pyran-2-yl)oxy)-3,5,8,10,12,14-hexamethyl-1-oxa-6-azacyclopentadecan-15-one], for which the “MIC Range” value in the assay on H. somni lay in the range of 8 to 64 µg/mL. Further, the “Survival at Day 7” value in the assay on P. multocida is given as around 50%. Besides, in the assay with CD163, the CD163 expression result is recorded as “suppressed; also recorded: mitigates the pathologic increase in CD163 expression”.
